According to paper PMC12446476 (Nature Communications, 2025):
In brackets after ≈: the same amount, converted by molar mass. Several values for one entry are separate records, joined by “and”; a condition that tells them apart may be missing. Identical values can stand only once. Like-named read-outs stand apart in the source and are kept apart here.

Tests used:
N. gonorrhoeae [1] = experiment: In vitro selection of mutants with reduced susceptibility; type: cell-based, Neisseria gonorrhoeae
Experimental: N. gonorrhoeae strains were grown overnight on chocolate agar plates, as described above. […] Plates were incubated at 35 ± 2 °C in a humid 5% CO2–enriched atmosphere for 48–72 h.

N. gonorrhoeae [2] = experiment: MIC determination, agar dilution (CLSI); type: cell-based, Neisseria gonorrhoeae; conditions: for MIC: Neisseria gonorrhoeae, read-out: Minimum inhibitory concentration; for NgMIC50: screening panel of 14 N. gonorrhoeae isolates
From the text: The 2024 WHO N. gonorrhoeae reference strains were used for quality control. Only whole MIC doubling dilutions are reported. Clinical breakpoints or the epidemiological cutoff (ECOFF, to indicate azithromycin resistance) from EUCAST (v14.0, https://www.eucast.org/clinical_breakpoints) were used to classify isolates as antimicrobial susceptible or resistant. […] Two times the standard inoculum defined by CLSI was used to establish consistent growth in untreated control samples for some strains. In vitro time-kill assays were performed according to CLSI guidelines[65] using Columbia Broth (BD Difco) supplemented with 1% IsoVitaleX Enrichment (BD). Viable bacterial counts were generated by plating 10-fold serially diluted samples on GC agar plates containing 1% IsoVitaleX Enrichment (BD).

[3] = molecular target: T1, recombinant NgFabI protein (Neisseria gonorrhoeae, UniProt A0ACH0F547); conditions: cited from earlier work
[4] = molecular target: T1, recombinant NgFabI protein; experiment: biochemical
Experimental: FabI activity was monitored by measuring NADH consumption. […] To initiate reactions, 50 µM NADH was added, and absorbance was monitored at 340 nm every 12 s for a total of 40 min using a Spectramax Plus 384 plate reader (Molecular Devices) at a controlled temperature of 30 °C. Data were analysed using the XLfit Microsoft Excel plugin (version 5.5). IC50 values were determined using a logistic sigmoid curve-fitting of the inhibitor dose response curves.

human lymphocytes = experiment: In vitro micronucleus test; type: cell-based; conditions: for Micronucleated cells: 1000 scored cells
[5] = HepG2 cell viability (CellTiter-Glo); type: cell-based; conditions: human, HepG2 cells, read-out: Cell viability, Mean (n=3)
Experimental: (§1) HepG2 cells (HB-8065; ATCC) cultured in DMEM (Gibco) with 5% fetal bovine serum (heat-inactivated, Sigma-Aldrich) and 1% penicillin-streptomycin (ThermoFisher), were seeded in 96-well plates (3.0 × 10^4 per well) and incubated at 37 °C and 5% CO2. […] Each treatment was assessed in triplicate. Cytotoxicity was determined using CytoTox-ONE^TM Homogenous Membrane Integrity Assay kits (Promega), and cell viability was determined using CellTiter-Glo® Luminescent Cell Viability Assay kits (Promega), each according to the manufacturer’s specifications.

HepG2 cells = experiment: HepG2 cytotoxicity (CytoTox-ONE membrane integrity); type: cell-based, human; conditions: 24 h
Experimental: as §1

S. aureus ATCC 29213 = experiment: S. aureus neutropenic murine thigh infection model; type: in vivo, mouse; conditions: ICR mice, 100 mg/kg PO, TID, 48h; 100 mg/kg
Experimental: The S. aureus neutropenic murine thigh infection model was performed in accordance with the Guide for Care and Use of Laboratory Animals[75]. Animal rooms were maintained at a temperature range of 20–24 °C and humidity between 30% and 70%, with 12 h light/dark cycles. Female ICR mice (BioLASCO Taiwan Co., Ltd.) were rendered neutropenic via IP injection of cyclophosphamide four days before infection (150 mg/kg) and again one day before infection (100 mg/kg). Animals were anaesthetised with isoflurane (3–5%), then inoculated intramuscularly with S. aureus ATCC 29213 (~1 × 10^5 CFU/mouse). […] Animals were sacrificed via CO2 asphyxiation at either 2 h (baseline), 26 and/or 50 h post-infection. Thigh tissues were harvested and homogenised in 3 mL sterile PBS (pH 7.4). Bacterial burdens were determined by performing 10-fold serial dilutions and plating on nutrient agar plates.

[6] = system: mouse lymphoma L5178Y TK+/− cells; type: cell-based; conditions: positive control, 10 µg/mL
E. coli WP2 uvrA = experiment: Ames assay, E. coli strain; type: cell-based; conditions: without S9, positive control 500 µg/plate
Experimental: Ames assays were performed using four strains of Salmonella typhimurium (TA1535, TA1537, TA98 and TA100) and a single strain of E. coli (WRP2 uvrA) in the presence and absence of S9 tissue homogenate. Dose levels (µg/plate) up to 4000 were assessed for WP2 uvrA and TA98, 500 for TA1535, 250 for TA1537 and 62.5 for TA100.

[7] = screening panel N. gonorrhoeae isolate E
[8] = screening panel N. gonorrhoeae isolate F
[9] = screening panel N. gonorrhoeae isolate G
[10] = screening panel N. gonorrhoeae isolate H
[11] = screening panel N. gonorrhoeae isolate I
[12] = screening panel N. gonorrhoeae isolate J
[13] = screening panel N. gonorrhoeae isolate K
[14] = screening panel N. gonorrhoeae isolate A
[15] = screening panel N. gonorrhoeae isolate B
[16] = screening panel N. gonorrhoeae isolate C
[17] = screening panel N. gonorrhoeae isolate D
[18] = screening panel N. gonorrhoeae isolate L
[19] = screening panel N. gonorrhoeae isolate M
[20] = screening panel N. gonorrhoeae isolate N
[21] = Suppl. Table 4, 3 h treatment, with S9, 32 h sampling, 15 µg/mL
[22] = Suppl. Table 5, 3 h treatment, with S9, 32.5 h sampling, 20 µg/mL
[23] = Suppl. Table 4, 31 h treatment, without S9, 31 h sampling, 0.08 µg/mL
[24] = Suppl. Table 5, 31 h treatment, without S9, 31 h sampling, 0.04 µg/mL

T1 sequence (A0ACH0F547 entry or part of it): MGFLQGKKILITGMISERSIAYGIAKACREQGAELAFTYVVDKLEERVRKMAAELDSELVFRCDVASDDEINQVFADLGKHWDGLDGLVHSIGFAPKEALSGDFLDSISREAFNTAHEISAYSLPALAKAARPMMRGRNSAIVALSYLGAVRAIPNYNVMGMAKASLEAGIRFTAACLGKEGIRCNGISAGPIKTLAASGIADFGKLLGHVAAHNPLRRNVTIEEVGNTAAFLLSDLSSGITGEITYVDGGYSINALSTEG

O=C(O)c1cn(C2CC2)c2cc(N3CCNCC3)c(F)cc2c1=O [Ciprofloxacin, reference compound]
Mutants (colonies) (N. gonorrhoeae [1]; 6926, 4x MIC): 4 | Mutants (colonies) (N. gonorrhoeae [1]; 6926, 8x MIC): 5 | Mutants (colonies) (N. gonorrhoeae [1]; 6926, 16x MIC): 1 | Mutants (colonies) (N. gonorrhoeae [1]; ATCC 700825, 4x MIC): 1 | Mutants (colonies) (N. gonorrhoeae [1]; ATCC 700825, 8x MIC): 0 | Mutants (colonies) (N. gonorrhoeae [1]; ATCC 700825, 16x MIC): 0

Cc1c(CN(C)C(=O)/C=C/c2cnc3c(c2)CCC(=O)N3)oc2ccccc12 [Debio 1452, (E)-N-methyl-N-((3-methylbenzofuran-2-yl)methyl)-3-(7-oxo-5,6,7,8-tetrahydro-1,8-naphthyridin-3-yl)acrylamide, reference compound]
MIC (N. gonorrhoeae [2]; [7]): 0.5 µg/mL (≈ 1.33 µM) | MIC (N. gonorrhoeae [2]; [8]): 2 µg/mL (≈ 5.33 µM) | MIC (N. gonorrhoeae [2]; [9]): 4 µg/mL (≈ 10.7 µM) | MIC (N. gonorrhoeae [2]; [10]): 2 µg/mL (≈ 5.33 µM) | MIC (N. gonorrhoeae [2]; [11]): 1 µg/mL (≈ 2.66 µM) | MIC (N. gonorrhoeae [2]; [12]): 2 µg/mL (≈ 5.33 µM) | MIC (N. gonorrhoeae [2]; [13]): 4 µg/mL (≈ 10.7 µM) | IC50 ([3]; deduced from Figure 3A of reference 15): ~100 nM | Ki ([3]; seen by the reviewer in the cited work, read-out: Kiapp): 5 nM

Cc1c(CN(C)C(=O)/C=C/c2cnc3c(c2)N[C@H](C)CC(=O)N3)oc2ccccc12 [Compound 2]
MIC (N. gonorrhoeae [2]; [14]): 0.25 µg/mL (≈ 0.618 µM) | MIC (N. gonorrhoeae [2]; [15]): 0.125 µg/mL (≈ 0.309 µM) | MIC (N. gonorrhoeae [2]; [16]): 0.125 µg/mL (≈ 0.309 µM) | MIC (N. gonorrhoeae [2]; [17]): 0.125 µg/mL (≈ 0.309 µM) | MIC (N. gonorrhoeae [2]; [7]): 0.06 µg/mL (≈ 0.148 µM) | MIC (N. gonorrhoeae [2]; [8]): 0.25 µg/mL (≈ 0.618 µM) | MIC (N. gonorrhoeae [2]; [9]): 0.25 µg/mL (≈ 0.618 µM) | MIC (N. gonorrhoeae [2]; [10]): 0.125 µg/mL (≈ 0.309 µM) | MIC (N. gonorrhoeae [2]; [11]): 0.125 µg/mL (≈ 0.309 µM) | MIC (N. gonorrhoeae [2]; [12]): 0.125 µg/mL (≈ 0.309 µM) | MIC (N. gonorrhoeae [2]; [13]): 0.5 µg/mL (≈ 1.24 µM) | MIC (N. gonorrhoeae [2]; [18]): 0.125 µg/mL (≈ 0.309 µM) | MIC (N. gonorrhoeae [2]; [19]): 0.125 µg/mL (≈ 0.309 µM) | MIC (N. gonorrhoeae [2]; [20]): 0.125 µg/mL (≈ 0.309 µM) | NgMIC50 (N. gonorrhoeae [2]): 0.125 µg/mL | IC50 [4]: 2.4 nM

O=P1(N(CCCl)CCCl)NCCCO1 (stereo not drawn) [Cyclophosphamide]
Incidence of micronucleated cells (human lymphocytes; +S9, treatment 3 h, harvest 32 h, positive control 15 µg/mL (Debio 1453P study)): 3.00% | Incidence of micronucleated cells (human lymphocytes; +S9, treatment 3 h, harvest 32.5 h, positive control 20 µg/mL (Debio 1453 study)): 7.15% | Micronucleated cell percentage (human lymphocytes; [21]): 3.00% | Micronucleated cells (human lymphocytes; [21]): 21 and 39 | Micronucleated cell percentage (human lymphocytes; [22]): 7.15% | Micronucleated cells (human lymphocytes; [22]): 78 and 65

CN(C)CCCN1c2ccccc2Sc2ccc(Cl)cc21 [chlorpromazine]
viability at 24 h, 5 µM ([5]; 5 µM): 101% | viability at 24 h, 50 µM ([5]; 50 µM): 1% | viability at 24 h, 250 µM ([5]; 250 µM): 0% | Cytotoxicity, Mean (n=3) (HepG2 cells; 5 µM): 5% | Cytotoxicity, Mean (n=3) (HepG2 cells; 50 µM): 33% | Cytotoxicity, Mean (n=3) (HepG2 cells; 250 µM): 29%

CC(=O)NC[C@H]1CN(c2ccc(N3CCOCC3)c(F)c2)C(=O)O1 [Linezolid, reference compound]
CFU per thigh (S. aureus ATCC 29213): 930 CFU per thigh and 510 CFU per thigh and 570 CFU per thigh and 750 CFU per thigh and 720 CFU per thigh | Log10(CFU/Thigh) (S. aureus ATCC 29213): 2.968 Log10(CFU/Thigh) and 2.708 Log10(CFU/Thigh) and 2.756 Log10(CFU/Thigh) and 2.875 Log10(CFU/Thigh) and 2.857 Log10(CFU/Thigh)

Cc1c(CN(C)C(=O)/C=C/c2cnc3c(c2)N[C@@H](C)CC(=O)N3)oc2ccccc12 [Compound 6]
Minimum inhibitory concentration (N. gonorrhoeae [2]; [14]): 1 µg/mL (≈ 2.47 µM) | Minimum inhibitory concentration (N. gonorrhoeae [2]; [15]): 0.5 µg/mL (≈ 1.24 µM) | Minimum inhibitory concentration (N. gonorrhoeae [2]; [16]): 0.5 µg/mL (≈ 1.24 µM) | Minimum inhibitory concentration (N. gonorrhoeae [2]; [17]): 0.5 µg/mL (≈ 1.24 µM) | Minimum inhibitory concentration (N. gonorrhoeae [2]; [7]): 0.5 µg/mL (≈ 1.24 µM) | Minimum inhibitory concentration (N. gonorrhoeae [2]; [8]): 1 µg/mL (≈ 2.47 µM) | Minimum inhibitory concentration (N. gonorrhoeae [2]; [9]): 1 µg/mL (≈ 2.47 µM) | Minimum inhibitory concentration (N. gonorrhoeae [2]; [10]): 1 µg/mL (≈ 2.47 µM) | Minimum inhibitory concentration (N. gonorrhoeae [2]; [11]): 0.5 µg/mL (≈ 1.24 µM) | Minimum inhibitory concentration (N. gonorrhoeae [2]; [12]): 1 µg/mL (≈ 2.47 µM) | Minimum inhibitory concentration (N. gonorrhoeae [2]; [13]): 2 µg/mL (≈ 4.94 µM) | Minimum inhibitory concentration (N. gonorrhoeae [2]; [18]): 0.5 µg/mL (≈ 1.24 µM) | Minimum inhibitory concentration (N. gonorrhoeae [2]; [19]): 0.5 µg/mL (≈ 1.24 µM) | Minimum inhibitory concentration (N. gonorrhoeae [2]; [20]): 0.5 µg/mL (≈ 1.24 µM) | IC50 [4]: 14 nM | fold less potent than its enantiomer compound 2 (NgFabI IC50) [4]: 5 fold

Cc1c(CN(C)C(=O)/C=C/c2cnc3c(c2)NCCC(=O)N3)oc2ccccc12 [Compound 1]
MIC (N. gonorrhoeae [2]; [14]): 0.25 µg/mL (≈ 0.64 µM) | MIC (N. gonorrhoeae [2]; [15]): 0.125 µg/mL (≈ 0.32 µM) | MIC (N. gonorrhoeae [2]; [16]): 0.125 µg/mL (≈ 0.32 µM) | MIC (N. gonorrhoeae [2]; [17]): 0.25 µg/mL (≈ 0.64 µM) | MIC (N. gonorrhoeae [2]; [7]): 0.125 µg/mL (≈ 0.32 µM) | MIC (N. gonorrhoeae [2]; [8]): 0.25 µg/mL (≈ 0.64 µM) | MIC (N. gonorrhoeae [2]; [9]): 0.5 µg/mL (≈ 1.28 µM) | MIC (N. gonorrhoeae [2]; [10]): 0.25 µg/mL (≈ 0.64 µM) | MIC (N. gonorrhoeae [2]; [11]): 0.125 µg/mL (≈ 0.32 µM) | MIC (N. gonorrhoeae [2]; [12]): 0.25 µg/mL (≈ 0.64 µM) | MIC (N. gonorrhoeae [2]; [13]): 0.5 µg/mL (≈ 1.28 µM) | MIC (N. gonorrhoeae [2]; [18]): 0.25 µg/mL (≈ 0.64 µM) | MIC (N. gonorrhoeae [2]; [19]): 0.125 µg/mL (≈ 0.32 µM) | MIC (N. gonorrhoeae [2]; [20]): 0.125 µg/mL (≈ 0.32 µM) | NgMIC50 (N. gonorrhoeae [2]): 0.25 µg/mL | IC50 [4]: 6 nM

COS(C)(=O)=O [MMS, Methyl methanesulfonate]
Induced mutant frequency [6]: 421.6 | Mutant frequency per 10^6 cells [6]: 490.9 | Ames bacterial mutation assessment, Mean (E. coli WP2 uvrA): 168 | Colony count (E. coli WP2 uvrA): 174 and 161 and 169

COc1cc2c(c(OC)c1OC)-c1ccc(OC)c(=O)cc1[C@@H](NC(C)=O)CC2 [Colchicine]
Incidence of micronucleated cells (human lymphocytes; -S9, treatment 31 h, harvest 31 h, positive control 0.04 µg/mL (Debio 1453 study)): 1.85% | Incidence of micronucleated cells (human lymphocytes; -S9, treatment 31 h, harvest 31 h, positive control 0.08 µg/mL (Debio 1453P study)): 3.35% | Micronucleated cell percentage (human lymphocytes; [23]): 3.35% | Micronucleated cells (human lymphocytes; [23]): 33 and 34 | Micronucleated cell percentage (human lymphocytes; [24]): 1.85% | Micronucleated cells (human lymphocytes; [24]): 19 and 18
